Consider seven compounds from patent publication US11484543B2, “Compositions and methods for diagnosing and treating diseases and disorders associated with mutant KCNJ5” (The Rockefeller University, priority 2017, dated 2022).

What all share (type): cell-based
One test has as its target T1, KCNJ5^L168R (Homo sapiens, UniProt P48544, L168R).
T1 construct: expressed in transfected cells
T1 sequence (P48544 1-419 L168R): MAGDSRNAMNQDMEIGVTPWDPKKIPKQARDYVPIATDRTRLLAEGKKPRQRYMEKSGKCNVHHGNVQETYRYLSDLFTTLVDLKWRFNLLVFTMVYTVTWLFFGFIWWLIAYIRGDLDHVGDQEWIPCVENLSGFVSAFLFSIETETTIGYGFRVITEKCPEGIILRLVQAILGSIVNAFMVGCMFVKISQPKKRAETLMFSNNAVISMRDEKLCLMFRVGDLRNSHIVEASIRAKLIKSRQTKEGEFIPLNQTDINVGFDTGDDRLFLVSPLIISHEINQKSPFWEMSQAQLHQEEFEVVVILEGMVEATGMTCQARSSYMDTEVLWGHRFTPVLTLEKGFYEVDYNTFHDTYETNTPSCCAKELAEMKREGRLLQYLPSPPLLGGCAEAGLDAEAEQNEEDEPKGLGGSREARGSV
As to the kind of experiment: Cell viability assay (ATP, CellTiter-Glo): rescue of KCNJ5^L168R-induced lethality in inducible HEK293 cells. The note with it: for dose response on KCNJ5^L168R: tested at 1.1, 3.3 and 10 μM. As to the method: (§1) WT or mutant human KCNJ5 cDNAs (Choi et al., 2011, Science 331:768-772) were subcloned into the pcDNA5/FRT/TO vector using BamHI and HindIII. Single copies of WT or mutant human KCNJ5 cDNAs expressed under the control of tetracycline-inducible promoter were introduced into HEK293 cells using the Flp-in T-Rex System (Invitrogen) according to the manufacturer's instructions. Cells were grown in selective media containing 10% Tet-system approved FBS (Clontech) until induction.
(§2) Assay plates were centrifuged and incubated overnight at 37° C. 20 nL was transferred from the compound source plate to the cell assay plate using an Aquarius (Tecan) with a 384-well pin tool (V&P Scientific). The final concentration of compound for screening was 10 μM and the final DMSO concentration was 0.1%. 1 μL of tetracycline (final concentration 1 μg/mL) was added to compound containing and negative control wells by Multidrop Combi to induce expression. 1 μL of media was added to positive control wells. Assay plates were centrifuged and incubated for 72 hours at 37° C., 5% CO2. CellTiter-Glo (Promega) was used to measure cell viability in the assay wells according to the manufacturer's instructions. 10 μL/well of CellTiter-Glo reagent was added to the assay plates using a MultiDrop Combi. The plates were shaken on a Thermomixer R (Eppendorf) at 1100 rpm for 1 minute and incubated in the dark for 10 minutes at room temperature. Luminescence was read on an Envision plate reader (PerkinElmer) with 0.3 second sampling time per well. Raw data (luminescence counts per second) was normalized to percent effect by the formula 100−(((sample−negative control mean)/(positive control mean−negative control mean))*100).
(§3) Data was analyzed using the programs Excel (Microsoft) and Prism (GraphPad). Errors are SD unless otherwise indicated in the legend. Dose-response curves were fitted with a four-parameter logistic equation: F(x)=D+(A−D)/(1+(x/C)^B), with A=minimum inhibition B=Hill's slope C=inflection point D=maximum inhibition Synthesis of Macrolide Derivatives
(§4) Cellular ATP levels were measured as a proxy for cell viability, using a commercially available luciferase assay (Crouch et al., 1993, Proc. Natl. Acad. Sci. U.S.A. 109:2533-2538).
(§5) Conditions were designed to maximize reproducibility and the signal-to-background ratios (S/B) (Zhang et al., 1999, J. Biomol. Screen 4:67-73) comparing ATP level in uninduced and induced cells. Screening was performed in 384-well plates; compounds were added 24 hours after plating, and channel expression was induced immediately after compound addition. ATP levels were measured 72 hours after induction.
In general terms: In ATP-based viability assays light output follows the ATP content of the culture.

A further test concerns the target T2, KCNJ5^WT (Homo sapiens, UniProt P48544).
T2 construct: expressed in transfected cells
T2 sequence (P48544 1-419): T1 sequence (P48544 1-419 L168R) with R168L
As to the kind of experiment: Membrane potential assay (FLIPR dye) in inducible KCNJ5^WT HEK293 cells. The settings on record: 10-point dilution 20 to 0.0391 μM, N=3, four-parameter fit. Here is the method: Single copies of WT or mutant human KCNJ5 cDNAs expressed under the control of tetracycline-inducible promoter were introduced into HEK293 cells using the Flp-in T-Rex System (Invitrogen) according to the manufacturer's instructions. Cells were grown in selective media containing 10% Tet-system approved FBS (Clontech) until induction.
20 μL of WT cells were plated into sterile black with clear bottom tissue culture-treated 384-well plates (Corning) at a density of 10000 cells/well using a Multidrop Combi. Assay plates were centrifuged at 500 rpm for 10 seconds and incubated overnight at 37° C. in a humidified 5% CO2 incubator. After the overnight incubation, 1 μL of tetracycline (final conc. 1 μg/mL) was added to all wells by Multidrop Combi to induce KCNJ5. Assay plates were centrifuged at 500 rpm for 10 seconds and incubated overnight at 37° C. in a humidified 5% CO2 incubator. The next day, 10 μL of medium was removed from each well using a PlateMate Plus (Thermo Scientific). 10 μL of Blue Formula FLIPR membrane potential dye (Molecular Devices) was added to cells using a Multichannel pipettor. Assay plates were incubated for 30 minutes. at 37° C. After incubation, 20 nL was transferred twice from the compound source plate to the cell assay plate using an Aquarius with a 384-well pin tool for a total transfer volume of 40 nL and a final DMSO concentration of 0.2%. 1 μL of 20 mM BaCl2 was added to positive control wells using a Multichannel pipettor. The assay plate was incubated 20 minutes at room temperature in the dark.
Changes in membrane potential were detected using a well-established fluorescence-based measure of membrane potential (FIG. 4).

For another test, the target named is T3, KCNJ5^G151R (Homo sapiens, UniProt P48544, G151R).
T3 construct: expressed in transfected cells
T3 sequence (P48544 1-419 G151R): T1 sequence (P48544 1-419 L168R) with G151R, R168L
As to the kind of experiment: cell-based. The note with it: for G151R maximum inhibition / G151R minimum inhibition / IC50: 10-point dilution 20 to 0.0391 μM, N=3, four-parameter fit. As to the method:
as §1, §2, §3, §4, §5
Levels of ATP in uninduced and induced cells without added test compound defined 100% and 0% effect, respectively, and served as a proxy for lethality.

Where [1] appears, read: 10-point dilution 20 to 0.0391 μM, N=3, four-parameter fit.

Where a chain is given by its changes, count along the chain named. Read-outs that look alike come from different tables or passages of the source.

Regarding `CC[C@H]1OC(=O)[C@H](C)[C@@H](O[C@H]2C[C@@](C)(OC)[C@@H](O)[C@H](C)O2)[C@H](C)[C@@H](O[C@@H]2O[C@H](C)C[C@H](N(C)C)[C@H]2O)[C@](C)(O)C[C@@H](C)CN(C)[C@H](C)[C@@H](O)[C@]1(C)O` [Azithromycin, azithromycin], at KCNJ5^L168R (setting [1]), it took 8.05 µM to reach half-maximal inhibition (IC50), the L168R maximum inhibition is 12.01% and the L168R minimum inhibition was 0.71%. Also, the “WT IC50” value at KCNJ5^WT is “No fit”. Further, on KCNJ5^G151R, the G151R maximum inhibition worked out at 32.00%; the G151R minimum inhibition worked out at 5.11%; the IC50 – broadly, the point on the concentration scale where inhibition reaches its midpoint – turned out to be 5.69 µM.

`CC[C@H]1OC(=O)[C@H](C)[C@@H](O[C@H]2C[C@@](C)(OC)[C@@H](O)[C@H](C)O2)[C@H](C)[C@@H](O[C@@H]2O[C@H](C)C[C@H](N(C)C)[C@H]2O)[C@](C)(OC)C[C@@H](C)C(=O)[C@H](C)[C@@H](O)[C@]1(C)O` [Clarithromycin, clarithromycin]: at KCNJ5^L168R (setting [1]), the midpoint of inhibition, the IC50, lay at 1.72 µM; the L168R maximum inhibition is reported as 55.70%; the L168R minimum inhibition turned out to be 2.35%. The “dose response on KCNJ5^L168R” value on KCNJ5^L168R was “showed a dose response”. For the same compound, at KCNJ5^WT, the “WT IC50” value is given as “No fit”. Further, on KCNJ5^G151R, the G151R maximum inhibition is listed as 83.09%, the G151R minimum inhibition was determined as 6.40% and the IC50 was 0.71 µM. In addition, the “inhibition of KCNJ5^MUT (structure-activity statement)” value against KCNJ5^G151R (macrolide series, dilution curves) is recorded as “potent effects”.

As to `CC[C@H]1OC(=O)[C@H](C)[C@@H](O[C@H]2C[C@@](C)(OC)[C@@H](O)[C@H](C)O2)[C@H](C)[C@@H](O[C@@H]2O[C@H](C)C[C@H](N(C)C)[C@H]2O)[C@](C)(O)C[C@@H](C)[C@@H]2N[C@@H](COCCOC)O[C@H]([C@H]2C)[C@]1(C)O` [Dirithromycin, dirithromycin], on KCNJ5^L168R (setting [1]), the “L168R IC50” value is “No fit”. Also, the “WT IC50” value at KCNJ5^WT is listed as “No fit”. At KCNJ5^G151R, the G151R maximum inhibition is 18.29%, the G151R minimum inhibition amounted to 1.31% and the IC50 came out at 15.8 µM.

Regarding `CC[C@H]1OC(=O)[C@H](C)[C@@H](O[C@H]2C[C@@](C)(OC)[C@@H](O)[C@H](C)O2)[C@H](C)[C@@H](O[C@@H]2O[C@H](C)C[C@H](N(C)C)[C@H]2O)[C@](C)(O)C[C@@H](C)C(=NO)[C@H](C)[C@@H](O)[C@]1(C)O` [Erythromycin A Oxime, erythromycin A oxime], at KCNJ5^L168R (setting [1]), the IC50 was 8.13 µM, the L168R maximum inhibition turned out to be 60.00% and the L168R minimum inhibition came out at 0.65%. Also, at KCNJ5^L168R, the “dose response on KCNJ5^L168R” value is on record as “showed a dose response”. The “WT IC50” value on KCNJ5^WT is “No fit”. On KCNJ5^G151R, this compound came in with a G151R maximum inhibition of 84.11%, a G151R minimum inhibition of 2.49% and an IC50 of 2.88 µM.

In the case of `CC[C@H]1OC(=O)[C@H](C)[C@@H](O[C@H]2C[C@@](C)(OC)[C@@H](O)[C@H](C)O2)[C@H](C)[C@@H](O[C@@H]2O[C@H](C)C[C@H](N(C)C)[C@H]2O)[C@](C)(O)C[C@@H](C)C(=O)[C@H](C)[C@@H](O)[C@H]1C` [Erythromycin B, erythromycin B], on KCNJ5^L168R (setting [1]), the IC50 is 4.73 µM, the L168R maximum inhibition is 80.00% and the L168R minimum inhibition was 1.62%. At KCNJ5^WT, the “WT IC50” value is on record as “No fit”. Moreover, on KCNJ5^G151R, the G151R maximum inhibition is given as 84.36%, the G151R minimum inhibition is 7.15% and the IC50 came to 1.23 µM.

At KCNJ5^L168R (setting [1]), `CC[C@H]1OC(=O)[C@H](C)[C@@H](O[C@H]2C[C@@](C)(O)[C@@H](O)[C@H](C)O2)[C@H](C)[C@@H](O[C@@H]2O[C@H](C)C[C@H](N(C)C)[C@H]2O)[C@](C)(O)C[C@@H](C)C(=O)[C@H](C)[C@@H](O)[C@]1(C)O` [Erythromycin C, erythromycin C] yielded an IC50 of 12.2 µM, an L168R maximum inhibition of 18.43% and an L168R minimum inhibition of 1.41%. Besides, at KCNJ5^WT, the “WT IC50” value is “No fit”. Besides, on KCNJ5^G151R, the G151R maximum inhibition came to 75.00%, the G151R minimum inhibition is 6.72% and half-maximal inhibition (IC50) was put at 9.19 µM.

At KCNJ5^L168R (setting [1]), `CC[C@H]1OC(=O)[C@H](C)[C@@H](O[C@H]2C[C@@](C)(OC)[C@@H](O)[C@H](C)O2)[C@H](C)[C@@H](O[C@@H]2O[C@H](C)C[C@H](N(C)C)[C@H]2O)[C@](C)(O)C[C@@H](C)C(=O)[C@H](C)[C@@H](O)[C@]1(C)O` [Erythromycin, erythromycin] came in with an IC50 of 11.8 µM, an L168R maximum inhibition of 25.00% and an L168R minimum inhibition of 0.71%. The “dose response on KCNJ5^L168R” value at KCNJ5^L168R is on record as “showed a dose response”. The “WT IC50” value at KCNJ5^WT is reported as “No fit”. On KCNJ5^G151R, this compound came in with a G151R maximum inhibition of 90.00%, a G151R minimum inhibition of 3.55% and an IC50 of 10.5 µM. Besides, the viability at 10 µM on KCNJ5^G151R (HEK293, 72 h, mean of primary screen and hit pick, read-out: mean % effect) amounted to 73%. Moreover, on KCNJ5^G151R (HEK293, ATP level 72 h after induction, uninduced = 100%, induced = 0% effect, first of the two runs (primary screen / hit pick), read-out: % effect (1)), the viability at 10 µM worked out at 91.9%. Also, the viability at 10 µM at KCNJ5^G151R (HEK293, ATP level 72 h after induction, uninduced = 100%, induced = 0% effect, second of the two runs (primary screen / hit pick, confirmatory testing), read-out: % effect (2)) amounted to 54.2%.
